#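 Step 1: Grow cells in 96-well plates. Step 2: Expose to compound for 48 hours at 5 concentrations. Step 3: Interpolate endpoints linearly; if unreached, use highest concentration. GI50 is the concentration that inhibits growth by half. At the TGI there is no net growth.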
# Tests used:
# Assay in all cases: NCI anticancer screen, dose series, 48 h
# [1] = tested on: A549 NSCLC
# [2] = tested on: MOLT-4 leukemia
# [3] = tested on: NCI-H522 lung
# [4] = tested on: OVCAR-4 ovarian
# [5] = tested on: SF-295 CNS
# [6] = tested on: SK-MEL-2 melanoma
# [7] = tested on: SK-OV-3 ovarian
# [8] = tested on: TK-10 renal
# [9] = tested on: U251 CNS
# [10] = tested on: RXF 393 renal
SMILES,TGI [1],TGI [2],TGI [3],TGI [4],TGI [5],TGI [6],TGI [7],TGI [8],TGI [9],TGI [10],GI50 [1],GI50 [2],GI50 [3],GI50 [4],GI50 [10],GI50 [5],GI50 [6],GI50 [7],GI50 [8],GI50 [9]
COc1ccc(CC(CO)NC(=O)OCc2ccccc2)cc1Oc1ccc(CC(CO)NC(=O)OCc2ccccc2)cc1 (centres undefined),27.2 µM,34.5 µM,18.4 µM,> 100 µM,24.6 µM,32.4 µM,28.8 µM,41.5 µM,63.9 µM,–,–,–,–,–,–,–,–,–,–,–
CC(=O)OC(C)c1cc2c(s1)C(=O)c1sccc1C2=O (centres undefined),5.29 µM,> 23.6 µM,3.34 µM,3.5 µM,2.56 µM,2.41 µM,9.73 µM,3.86 µM,4.4 µM,3.27 µM,–,–,–,–,–,–,–,–,–,–
Oc1ccc(-c2nnc3sc(-c4ccc(F)cc4)nn23)cc1,> 100 µM,> 100 µM,> 100 µM,> 100 µM,59.9 µM,> 100 µM,> 100 µM,> 100 µM,41.9 µM,38.2 µM,> 100 µM,33.6 µM,62 µM,> 100 µM,15.6 µM,18.1 µM,> 100 µM,34.9 µM,69.8 µM,17.3 µM
